Measurements as given in US8053212B1, “Non-standard nucleoside analogs with reduced epimerization” (priority 2004, dated 2011).

Experiments:
[1] = not given; remark: listed apart in the source
[2] = Epimerization at neutral pH followed by 1H NMR in D2O; type: physicochemical; conditions: room temperature, after one week
Protocol: To measure the rate of epimerization of the nucleoside at neutral pH, a sample was dissolved in D2O and stored at room temperature. The ^1H NMR was measured after several time intervals. […] In particular, the NMR signal arising from H-6 of the heterocycle remained unchanged.

| Structure (SMILES) | pseudo first order rate constant of initial epimerization, kpH2 (pH 2.0, 37° C., aqueous) | slope of replot of logk versus pH (pH 2.0 to 5.0, 37° C.) | pseudo first order rate constant of initial epimerization, kpH5 (pH 5.0, 37° C., aqueous) | epimerization at high pH (pH 11.0, 23° C., 14 days, HPLC) | fraction protonated at physiological pH [1] | change of 1H NMR spectrum (epimerization) [2] | "end" value: fraction of starting material remaining at end of reaction (buffer, 336 h, pH 2) |
| --- | --- | --- | --- | --- | --- | --- | --- |
| Nc1[nH]c(=O)c([C@H]2C[C@H](O)[C@@H](CO)O2)cc1[N+](=O)[O-] | ≈ 10^−4 s^−1 | −0.971 | ≈ 2×10^−7 s^−1 | no epimerization was detected | > 80% | did not change |  |
| Nc1[nH]c(=O)c([C@H]2C[C@H](O)[C@@H](CO)O2)cc1[N+](=O)[O-] [nucleoside 4, 6-amino-5-nitro-3-(1′-beta-D-2′-deoxyribofuranosyl)-2(1H)-pyridone] |  |  |  |  |  |  | 0.09 |
